Source: patent publication US9833466B2, “Treatment of leukemia with histone deacetylase inhibitors” (Acetylon Pharmaceuticals Inc., priority 2014, dated 2017)

What was measured:
[1] = test system: bone marrow samples derived from AML patients; assay: Primary AML sample colony formation assay; type: cell-based; settings: Homo sapiens, 336 h; 6 bone marrow samples from AML patients; 14 days; single agent; read-out: median IC50, colony formation
Description: (A) 6 bone marrow samples derived from AML patients were cultured in methylcellulose-based medium and treated with increasing concentrations of Compound A, Compound J and azacitidine for 14 days when the colonies reach reasonable size. IC50 values for each drug are plotted. […] IC50 values were plotted for each patient sample.

Kasumi-1 [2] = assay: Surface CD11b by FACS in Kasumi-1; type: cell-based; settings: single agent, 72 hours
Description: (§1) Briefly, the AML cell lines HL-60 (FIGS. 4A and 4D), Kasumi-1 (FIGS. 4B and 4E) and NB4 (FIGS. 4C and 4F) were treated with the indicated concentrations of compounds. In FIGS. 4A-C, surface levels of myeloid differentiation marker CD11b were determined by FACS at 72 hours post-treatment. […] In FIGS. 4D-F, apoptosis was assessed by flow cytometry by measuring Annexin V binding and cellular permeability to propidium iodide at 96 hours post-treatment. The relative fraction of cells that were alive, in early apoptosis, in late apoptosis, or dead was then determined.
Briefly, cells were treated with DMSO, Compound B, Compound A, or Compound E as a single agent or in combination with azacitidine at the indicated concentrations. Surface levels of CD11b were determined 72 hours post-treatment (FIGS. 6A, 6C, 6E), and apoptosis was assessed 96 hours post-treatment (FIGS. 6B, 6D, 6F).

[3] = test system: AML blast freshly derived from bone marrow of AML patients; assay: Ex vivo proliferation of AML blast freshly derived from bone marrow; type: cell-based; settings: Homo sapiens; 5 bone marrow samples from AML patients; flow cytometry at 96 h; single agent; read-out: median IC50, live AML cells
Description: (A-B), 5 bone marrow samples derived from AML patients were treated with increasing concentrations of azacitidine, Compound A and Compound J and live AML cells were quantified by flow cytometry at 96 h. IC50 values (A) and AUC values (B) were plotted. […] The relative potency of the three drugs are Compound J>azacitidine>Compound A, consistent with the result in FIG. 2. (C) 5 bone marrow samples derived from AML patients were treated with increasing doses of azacitidine with Compound J and live AML cells were quantified by flow cytometry at 96 h. The combination index (Comb IDX) were calculated and median Comb IDX values were plotted.

HL-60, Kasumi-1 and NB4 = assay: Apoptosis by Annexin V / propidium iodide flow cytometry in three AML cell lines; type: cell-based; settings: single agent; 96 hours; HL-60, Kasumi-1, NB4
Description: as §1
FIGS. 10A-F show the treatment of the following AML cell lines: Kasumi-1 (FIGS. 10A and 10B), HL-60 (FIGS. 10C and 10D) and NB4 (FIGS. 10E and 10F), with indicated doses of compounds. FIGS. 10A, 10C, and 10E show surface levels of myeloid differentiation marker CD11b determined by FACS at 72 h post-treatment. […] FIGS. 10B, 10D, and 10F show the assessment of apoptosis by FACS (see, e.g., FIG. 9C).

NB4 = assay: Surface CD11b by FACS in NB4; type: cell-based; settings: single agent, 72 hours
Description: as §1
FIGS. 7A-F show the combination of HDAC inhibitors and azacitidine in the NB4 cell line. Briefly, cells were treated with DMSO, Compound B, Compound A, or Compound E as single agent or in combination with azacitidine at the indicated concentrations. Surface levels of CD11b were determined 72 hours post-treatment (FIGS. 7A, 7C, 7E), and apoptosis was assessed 96 hours post-treatment (FIGS. 7B, 7D, 7F).

GATA2 = GATA2 expression in MV4-11 AML cell line; type: cell-based; settings: single agent at 1 uM, 48 h and 72 h
Description: FIG. 16. […] (A-B) MV4-11 cells were plated at 2×10^5 cells/ml at indicated doses for 48 h and 72 h. RNA was prepared and analyzed for GATA2 and GAPDH as internal control.

HL-60 = assay: Surface CD11b by FACS in HL-60; type: cell-based; settings: single agent, 72 hours
Description: as §1
FIGS. 5A-F show the combination of HDAC inhibitors and azacitidine in the HL-60 cell line. Briefly, cells were treated with DMSO, Compound B, Compound A, or Compound E as a single agent or in combination with azacitidine for 96 hours. Surface levels of CD11b (FIGS. 5A, 5C, 5E) and apoptosis (FIGS. 5B, 5D, 5F) was assessed by flow cytometry, as in FIG. 4.

MV4-11 cells = assay: MV4-11 tumor growth and survival in Ncr nu/nu mice; type: in vivo; settings: single agent azacitidine 5 mg/kg IV q3d; MV4-11 in Ncr nu/nu mice
Description: Ncr nu/nu mice implanted with MV4-11 cells were treated with vehicle, azacitidine (5 mg/kg IV q3d), or azacitidine (5 mg/kg IV q3d) plus Compound A (50 mg/kg IP 5/2/5/2/5/2/5) for up to 4 weeks. (A) Tumor volume was measured twice weekly and the mean tumor volume±SD is plotted. (B) Fold tumor volume change on day 19 relative to day 1 is plotted. (C) Survival curve was plotted.

[4] = test system: HDAC1, HDAC2, HDAC3 and HDAC6; assay: HDAC selectivity of the inhibitor panel; type: biochemical; settings: HDAC isoform(s) the inhibitor is selective for
Description: Compounds for testing are diluted in DMSO to 50 fold the final concentration and a ten point three fold dilution series is made. The compounds are diluted in assay buffer (50 mM HEPES, pH 7.4, 100 mM Kill, 0.001% Tween-20, 0.05% BASE, 20 μM TEC) to 6 fold their final concentration. The HDAC enzymes (purchased from BPS Biosciences) are diluted to 1.5 fold their final concentration in assay buffer. The dipeptide substrate and trypsin at 0.05 μM final concentration are diluted in assay buffer at 6 fold their final concentration. The final enzyme concentrations to use in these assays are 3.3 ng/ml (HDAC1), 0.2 ng/ml (HDAC2), 0.08 ng/ml (HDAC3) and 2 ng/ml (HDAC6). The final substrate concentrations to use are 16 μM (HDAC1), 10 μM (HDAC2), 17 μM (HDAC3) and 14 μM (HDAC6). Five μ1 of compound and 20 μl of enzyme are added to wells of a black, opaque 384 well plate in duplicate. Enzyme and compound are incubated together at room temperature for 10 min. Five μ1 of substrate is added to each well, the plate is shaken for 60 seconds and placed into a Victor 2 microliter plate reader. The development of fluorescence is monitored for 60 min. and the linear rate of the reaction is calculated. The IC50 is determined using Graph Pad Prism by a four parameter curve fit.
The following HDAC inhibitors were used to evaluate the relationship between HDAC selectivity and the viability of AML cell lines upon exposure to the HDAC inhibitor: […]

MV4-11 [5] = assay: Apoptosis by Annexin V / propidium iodide flow cytometry in MV4-11; type: cell-based; settings: single agent, 96 h
Description: (§2) The distribution of cells among G0/G1 phase, G2/M phase, S phase and subG1 phase was determined. […] The relative fraction of cells that were live, in early apoptosis, in late apoptosis, or dead was then determined.
(§3) MV4-11 cells were treated with Compound E or with Compound A or with Compound B as single agent or in combination with azacitidine at indicated doses. FIGS. 12A, 12C, and 12E show surface levels of CD11b determined by FACS at 72 h post-treatment. FIGS. 12B, 12D, and 12F show assessment of apoptosis by FACS (as in, e.g., FIG. 9C) at 96 h post-treatment.
(§4) FIG. 17. […] (A) Indicated AML cell lines were exposed to increasing concentrations of Compound J to confirm their sensitivity to HDAC1/2 inhibition. (B-D) MV4-11 cells were treated with indicated concentrations of compounds. (B) Surface levels of myeloid differentiation marker CD11b were determined by FACS at 72 h post-treatment. […] (C) Cell cycle was assessed by flow cytometry after incorporation of EdU and staining with Far Red at 72 h post-treatment. The distribution of cells among G0/G1 phase, G2/M phase, S phase and subG1 phase was determined. […] (D) Apoptosis was assessed by flow cytometry via measuring Annexin V binding and cellular permeability to propidium iodide at 96 h post-treatment. The relative fraction of cells that were live, in early apoptosis, in late apoptosis or dead was then determined.

AML1/ETO fusion protein = AML1/ETO fusion protein Western blot in Kasumi-1 cells; type: cell-based; settings: 24 hours
Description: One type of AML has a signature chromosome translocation t(8:21) and therefore expression of a unique fusion protein AML1/ETO. […] In this study, Kasumi-1 cells were exposed to different concentrations of the HDAC inhibitor Compound A, or another HDAC1/2/6 selective inhibitor Compound G (data not shown), for 24 hours. The whole cell lysates were separated by SDS-PAGE (SDS-polyacrylamide gel electrophoresis) and transferred to a membrane (Western blot). The AML1/ETO fusion protein was detected on the membrane using an AML1 specific antibody.

MV4-11 [6] = assay: Surface CD11b by FACS in MV4-11; type: cell-based; settings: single agent, 72 h
Description: as §2, §3, §4

MV4-11 [7] = assay: Cell cycle by flow cytometry (EdU, Far Red) in MV4-11; type: cell-based; settings: single agent, 72 h
Description: as §2, §4

Kasumi-1 [8] = assay: Kasumi-1 cell cycle by propidium iodide staining (sub-G1); type: cell-based; settings: 72 hours, increasing concentrations
Description: HDAC inhibition causing AML cell death (apoptosis) was measured by staining the AML cells with propidium iodide after the cells were exposed to different concentrations of the HDAC inhibitors. Four distinct cell populations, G1, S, G2, and sub-G1, were separated and quantified based on their propidium iodide staining patterns. The sub-G1 cells are those dying or dead cells, and the percentage of this population was a reflection of the tested compound cytotoxicity.

[9] = test system: HL-60, NB4, MV4-11, Kasumi-1, THP-1, and MOLM-13; assay: Single agent activity on viability in AML cell lines; type: cell-based; settings: for viability IC50 relative to HDAC selective range: 72 hours, six AML cell lines
Description: FIGS. 3A-D show the single agent activity on viability in AML cell lines. Briefly, each of the following cell lines: HL-60, THP-1, MV-4-11, Kasumi-1, NB4, and MOLM-13 were exposed to increasing concentrations of either Compound B (FIG. 3A), Compound A (FIG. 3B), Compound E (FIG. 3C), or azacitidine (FIG. 3D) to determine their response to drug treatment. […] The panel of cell lines was also treated with azacitidine to measure their sensitivity.
FIGS. 8A-F show the single agent activity on viability in AML cell lines. […] Viability was calculated as a percentage of control (DMSO treated cells). Growth inhibition curves were generated using GraphPad Prism 6.
FIG. 17. […] (B-D) MV4-11 cells were treated with indicated concentrations of compounds. (B) Surface levels of myeloid differentiation marker CD11b were determined by FACS at 72 h post-treatment. […] (C) Cell cycle was assessed by flow cytometry after incorporation of EdU and staining with Far Red at 72 h post-treatment. The distribution of cells among G0/G1 phase, G2/M phase, S phase and subG1 phase was determined. […] (D) Apoptosis was assessed by flow cytometry via measuring Annexin V binding and cellular permeability to propidium iodide at 96 h post-treatment. The relative fraction of cells that were live, in early apoptosis, in late apoptosis or dead was then determined.

SMILES | IC50 [1] [µM] | IC50 [3] [µM] | Selectivity [4] | apoptosis relative to control cells (MV4-11 [5]) | percentage of CD11b positive cells (MV4-11 [6]) | cell cycle arrest (MV4-11 [7]) | viability IC50 relative to HDAC selective range [9] | further results
Nc1ncn([C@@H]2O[C@H](CO)[C@@H](O)[C@H]2O)c(=O)n1 [azacitidine, 4-amino-1-β-D-ribofuranosyl-S-triazin-2(1H)-one, reference compound] | 8.11 | 2.1 | – | – | – | – | – | CD11b positive cells (Kasumi-1 [2]): increased CD11b positive cells; apoptosis relative to control cells (HL-60, Kasumi-1 and NB4): increase in apoptosis relative to control cells; CD11b positive cells (NB4): minimal effects; GATA2 level (GATA2): induced GATA2 level; CD11b positive cells (HL-60): increased CD11b positive cells; survival (MV4-11 cells): increased survival; tumor growth (MV4-11 cells): reduced tumor growth
O=C(NO)c1cnc(NC2(c3ccccc3)CCN(C(=O)Nc3ccccc3)CC2)nc1 [Compound G, N-hydroxy-2-((4-phenyl-1-(phenylcarbamoyl)piperidin-4-yl)amino)pyrimidine-5-carboxamide] | – | – | HDAC6 (1/2) | increase in apoptosis relative to control cells | increased the percentage of CD11b positive cells | induced cell cycle arrest | has some inhibitory effects on HDAC1/2 at their IC50 values | amount of AML1/ETO fusion protein (AML1/ETO fusion protein): decrease the amount of this fusion protein in a concentration dependent manner; sub-G1 cells (dying or dead cells) (Kasumi-1 [8]): Increased amount of sub-G1 cells
Nc1cc(F)ccc1NC(=O)c1cnc2c(C3CC3)c(N3CCNCC3)ccc2c1 [Compound H] | – | – | HDAC3 | – | increased the percentage of CD11b positive cells | – | beyond its selective range | –
O=C(NO)c1cnc(NC2(c3cccc(F)c3)CCCCC2)nc1 [Compound C, 2-((1-(3-fluorophenyl)cyclohexyl)amino)-N-hydroxypyrimidine-5-carboxamide] | – | – | HDAC6 | – | no effect on CD11b positive cells | – | beyond its selective range | –
Nc1ccc(-c2cccs2)cc1NC(=O)c1ccc2nc(N3CCNCC3)ccc2c1 [Compound J, N-(2-amino-5-(thiophen-2-yl)phenyl)-2-(piperazin-1-yl)quinoline-6-carboxamide] | 2.95 | 0.6 | – | increase in apoptosis relative to control cells | highest potency increasing percentage of CD11b positive cells | induced cell cycle arrest as well as apoptosis | – | cell viability ([9]; AML cell lines): reduces cell viability
